Laboratory results as given in ChEMBL document CHEMBL4513160, “CO-ADD screening of MMV (CH) - Small Polar Library”.
≈ marks a conversion by molar mass, not a printed value.

Assays:
[1] = system: Pseudomonas aeruginosa; assay: microbe, parasite or virus in culture; conditions: ATCC 27853, 18 h, ASSAY_TEST Inhibition of Bacterial Growth, detection method Absorption (OD600), MEDIA CAMHB, plate type 384well, NBS, CORNING #3640
Description: Antibacterial activity against Pseudomonas aeruginosa ATCC 27853 (CO-ADD:GN_042); MIC in CAMBH media using NBS plates, by OD(600)

[2] = system: Pseudomonas aeruginosa; assay: Antibacterial activity against Pseudomonas aeruginosa PAO397 [PAO1 d(mexAB-oprM) d(mexCD-oprJ) d(mexEF-oprN) d(mexJKL) d(mexXY) d(opmH)] (CO-ADD:GN_211); MIC in CAMBH media using NBS plates, by OD(600); type: functional; conditions: ASSAY_TEST Inhibition of Bacterial Growth, detection method Absorption (OD600), MEDIA CAMHB, plate type 384well, CORNING #3640, time 18 hr
[3] = system: Acinetobacter baumannii; assay: microbe, parasite or virus in culture; conditions: ATCC 19606, 18 h, ASSAY_TEST Inhibition of Bacterial Growth, detection method Absorption (OD600), MEDIA CAMHB, plate type 384well, NBS, CORNING #3640
Description: Antibacterial activity against Acinetobacter baumannii ATCC 19606 (CO-ADD:GN_034); MIC in CAMBH media using NBS plates, by OD600

SMILES	MIC [1]	MIC [2]	MIC [3]
CC(=O)c1ccc(NC(=O)CCc2cccs2)nc1	> 300 µM	> 300 µM	> 300 µM
Cc1ccc(C2(O)CCNC2)cc1 (stereo unspecified)	300 µM (≈ 53.2 µg/mL)	> 300 µM	> 300 µM
O=C(c1ccc(Br)s1)N1CCN(c2ccccn2)CC1	> 300 µM	> 300 µM	> 300 µM
COc1ccc(-c2ccnc(CO)c2)c(OC)c1	> 300 µM	> 300 µM	> 300 µM
COc1ccc(OC)c(NC(=O)c2ccccn2)c1	> 300 µM	> 300 µM	> 300 µM
CC(CO)NC(=O)Nc1nc(-c2ccccc2)ns1 (stereo unspecified)	> 300 µM	200 µM (≈ 55.7 µg/mL)	> 300 µM
CC(O)CN1C(=O)C=CC1=O (stereo unspecified)	> 300 µM	> 300 µM	> 300 µM
CCCNc1nc(C)c(C(C)=O)s1	> 300 µM	200 µM (≈ 39.7 µg/mL)	> 300 µM
Cn1ccc(C(=O)Nc2ccc(Br)cn2)n1	> 300 µM	> 300 µM	> 300 µM
OCCCNc1ccnc2ccc(Cl)cc12	> 300 µM	> 300 µM	> 300 µM
CC(C)c1ccoc1C(=O)N(C)c1cc(C#N)ccn1	> 300 µM	> 300 µM	> 300 µM
NC(=O)C1CCN(c2ccnc3cc(Br)ccc23)C1 (stereo unspecified)	> 300 µM	> 300 µM	> 300 µM
CS(=O)(=O)CCNc1ccnc2ccc(Br)cc12	> 300 µM	> 300 µM	> 300 µM
NCC1Cc2ccccc21 (stereo unspecified)	> 300 µM	> 300 µM	> 300 µM
Brc1ccc2c(c1)OCCNC2	> 300 µM	> 300 µM	> 300 µM
COc1c(C(=O)N2CCOCC2)sc2ccc(F)cc12	> 300 µM	> 300 µM	> 300 µM
CN(Cc1ccc(O)cc1)C(=O)c1cc(Cl)c[nH]1	> 300 µM	> 300 µM	> 300 µM
Nc1ccnc(-c2ccccc2)c1	> 300 µM	> 300 µM	> 300 µM
CC(CN)N(C)C(=O)Cc1cccc2ccccc12 (stereo unspecified)	> 300 µM		> 300 µM
O=C(Nc1ccnc(CO)c1)c1ccc(F)cc1I	> 300 µM	> 300 µM	> 300 µM
CCOc1ccc(Cl)cc1CCNS(=O)(=O)N(C)C	> 300 µM	> 300 µM	> 300 µM

SMILES	MIC [1]	MIC [2]	MIC [3]
Cc1ccc(C(=O)N2CCN(c3nccs3)CC2)o1	> 300 µM	> 300 µM	> 300 µM
NCCNS(=O)(=O)c1ccc(F)c(C(F)(F)F)c1	> 300 µM	> 300 µM	> 300 µM
CCc1cccc(S(=O)(=O)N2CCC(NC)C2)c1 (stereo unspecified)	> 300 µM	> 300 µM	> 300 µM
CC(C)NC(=O)NCC1(N2CCOCC2)CCSC1 (stereo unspecified)	> 300 µM	> 300 µM	> 300 µM
Cc1nnc(SCC(=O)NCCCc2csc(N)n2)s1	> 300 µM	> 300 µM	> 300 µM
NCCS(=O)(=O)N1CCCc2ccccc21	> 300 µM	> 300 µM	> 300 µM
O=C(NC[C@H]1CCCN1)c1ccc2cccc(Cl)c2n1	> 300 µM	300 µM (≈ 86.9 µg/mL)	> 300 µM
CCC1Oc2c(Cl)cccc2NC1=O (stereo unspecified)	> 300 µM	> 300 µM	> 300 µM
Nc1nc(-c2ccc3c(c2)CCCC(=O)N3)cs1	> 300 µM	> 300 µM	> 300 µM
NCC1CCN(CCc2ccccc2)C1 (stereo unspecified)	> 300 µM	> 300 µM	> 300 µM
N#Cc1ncn(CC(=O)c2ccc3c(c2)CCO3)n1	> 300 µM	> 300 µM	> 300 µM
O=C(Nc1ccncc1)c1coc(Br)c1	> 300 µM	> 300 µM	> 300 µM
c1ccc(Nc2nccs2)nc1	> 300 µM	> 300 µM	> 300 µM
OCCCN(CCO)Cc1c(Cl)ccc2cccnc12	> 300 µM	> 300 µM	> 300 µM
OCC(O)CNc1ccnc2ccc(Br)cc12 (stereo unspecified)	> 300 µM	> 300 µM	> 300 µM
O=C(NCCO)Nc1nc2ccccc2s1	> 300 µM	> 300 µM	> 300 µM
CNC(=O)Cn1cc(-c2cccc3cnccc23)cn1	> 300 µM	> 300 µM	> 300 µM
NC(=O)C1CCN(Cc2ccc(Br)c3cccnc23)C1 (stereo unspecified)	> 300 µM	> 300 µM	> 300 µM
CN1CCCN(c2nc3ccccc3cc2CO)CC1	> 300 µM	> 300 µM	> 300 µM
CCNCCOc1cccc(OCC)c1	> 300 µM	> 300 µM	> 300 µM
Cc1cc(C(=O)NC2CCC(=O)NC2)cc(Cl)c1Br (stereo unspecified)	> 300 µM	> 300 µM	> 300 µM

SMILES	MIC [1]	MIC [2]	MIC [3]
COc1ncccc1-c1csc(NCCSC)n1	> 300 µM	> 300 µM	> 300 µM
c1ccc2c(N3CCNCC3)cncc2c1	> 300 µM	> 300 µM	> 300 µM
CCCc1cc(C(=O)NCCc2nc(C)c[nH]2)[nH]n1	> 300 µM	300 µM (≈ 78.4 µg/mL)	> 300 µM
CC(C)CCC(=O)N[C@@H]1CN(C)C[C@H]1CN(C)C	> 300 µM	> 300 µM	> 300 µM
CC(C)(N)C(O)c1ccc(Br)cc1 (stereo unspecified)	> 300 µM	> 300 µM	> 300 µM
Cc1ncc(C)c(N)n1	300 µM (≈ 36.9 µg/mL)	> 300 µM	> 300 µM
CN(C)c1nc(Cl)c(CN)s1	200 µM (≈ 38.3 µg/mL)	200 µM (≈ 38.3 µg/mL)	> 300 µM
c1ccc(N2CCN(c3ncccn3)CC2)nc1	> 300 µM	> 300 µM	> 300 µM
NCC(=O)N1CCCC(CCc2ccc(F)cc2F)C1 (stereo unspecified)	> 300 µM	> 300 µM	> 300 µM
NCc1cccc(-c2nccs2)c1	> 300 µM	> 300 µM	> 300 µM
CCc1c(C)nc2sc(C(N)=O)c(N)c2c1C	> 300 µM	> 300 µM	> 300 µM
CC[C@H](CO)Nc1ccnc2cc(Br)cnc12	> 300 µM	> 300 µM	> 300 µM
NCCNC(=O)c1ccc(-c2ccc(Cl)cc2)s1	300 µM (≈ 84.2 µg/mL)	90 µM (≈ 25.3 µg/mL)	> 300 µM
Nc1cnccc1N1CCCCC1	> 300 µM	> 300 µM	> 300 µM
c1cc(CNc2ncnc3[nH]ncc23)c2c(c1)OCO2	> 300 µM	> 300 µM	> 300 µM
CCCOc1ccc(CN)cc1	> 300 µM	> 300 µM	> 300 µM
Clc1cccnc1N1CCC(Nc2cccnc2)CC1	> 300 µM	> 300 µM	> 300 µM
NCc1cnn(-c2ccc(Cl)cc2)c1	> 300 µM	> 300 µM	> 300 µM
COc1ccc2c(c1)CCCC(=O)N2	> 300 µM	> 300 µM	> 300 µM
OCCNCCNCc1ccc(-c2ccccc2F)o1	> 300 µM	> 300 µM	> 300 µM
CC(C)(N)CN1CCN(c2cccc(Cl)c2)CC1	> 300 µM	> 300 µM	> 300 µM

SMILES	MIC [1]	MIC [2]	MIC [3]
O=C1C=CC(=O)N1Cc1ccc(Cl)cc1	> 300 µM	> 300 µM	> 300 µM
NS(=O)(=O)NCCCc1ccc(Br)cc1F	> 300 µM	> 300 µM	> 300 µM
N#CC(c1ccc(Br)cc1)N1CCNCC1 (stereo unspecified)	> 300 µM	> 300 µM	> 300 µM
COc1cccc(-c2ncc(CN)s2)c1	> 300 µM	> 300 µM	> 300 µM
O=C1NC(Cc2ccccc2)C(=O)Nc2ccccc21 (stereo unspecified)	> 300 µM	> 300 µM	> 300 µM
OC1(CNCc2ccc(Br)c3cccnc23)CCOC1 (stereo unspecified)	> 300 µM	> 300 µM	> 300 µM
NCCc1cccc2cc[nH]c12	> 300 µM	> 300 µM	> 300 µM
NCCNS(=O)(=O)c1ccc(-c2ccccc2)cc1	> 300 µM	> 300 µM	> 300 µM
NC(=O)CSc1nc(-c2ccc(Br)cc2)c[nH]1	> 300 µM	300 µM (≈ 93.7 µg/mL)	> 300 µM
CCN1CCN(c2cc(C#N)ccn2)CC1	> 300 µM	> 300 µM	> 300 µM
CCOc1ncc(C(=O)NCC(C)(O)C(C)C)cc1Cl (stereo unspecified)	> 300 µM	> 300 µM	> 300 µM
Cc1ccc2c(N)noc2n1	135 µM (≈ 20.1 µg/mL)	135 µM (≈ 20.1 µg/mL)	> 300 µM
Cc1cc(NCCO)nc2ccccc12	> 300 µM	> 300 µM	> 300 µM
CCCOc1ccccc1C(=O)NC1CCNC1 (stereo unspecified)	> 300 µM	25 µM (≈ 6.21 µg/mL)	> 300 µM
CNCC(=O)NC(C)c1nc(-c2ccc(Br)cc2)no1 (stereo unspecified)	> 300 µM	> 300 µM	> 300 µM
NC(=O)CSc1nnc(-c2cc(Br)ccc2O)[nH]1	> 300 µM	> 300 µM	> 300 µM
O=C(NCCO)Nc1cc(F)ccc1N1CCCCC1	> 300 µM	300 µM (≈ 84.4 µg/mL)	> 300 µM
Cc1cc(Br)cc(C(=O)NCc2nccc(N)n2)c1	> 300 µM	> 300 µM	> 300 µM
Cn1ccnc1-c1noc(NC(=O)c2ccccn2)n1	> 300 µM	> 300 µM	> 300 µM
O=S1(=O)CCC(CNc2ccnc3ccc(Cl)cc23)C1 (stereo unspecified)	> 300 µM	> 300 µM	> 300 µM
CN(C)CCC(=O)c1ccc(F)cc1	> 300 µM	> 300 µM	> 300 µM
